From patent publication US7786137B2, “Bicyclic derivatives as modulators of ion channels” (Vertex Pharmaceuticals Incorporated, priority 2005, dated 2010) come the findings set out here.

SMILES strings stand for the structures.

NaV1.3, sequence (Q9NY46 whole entry): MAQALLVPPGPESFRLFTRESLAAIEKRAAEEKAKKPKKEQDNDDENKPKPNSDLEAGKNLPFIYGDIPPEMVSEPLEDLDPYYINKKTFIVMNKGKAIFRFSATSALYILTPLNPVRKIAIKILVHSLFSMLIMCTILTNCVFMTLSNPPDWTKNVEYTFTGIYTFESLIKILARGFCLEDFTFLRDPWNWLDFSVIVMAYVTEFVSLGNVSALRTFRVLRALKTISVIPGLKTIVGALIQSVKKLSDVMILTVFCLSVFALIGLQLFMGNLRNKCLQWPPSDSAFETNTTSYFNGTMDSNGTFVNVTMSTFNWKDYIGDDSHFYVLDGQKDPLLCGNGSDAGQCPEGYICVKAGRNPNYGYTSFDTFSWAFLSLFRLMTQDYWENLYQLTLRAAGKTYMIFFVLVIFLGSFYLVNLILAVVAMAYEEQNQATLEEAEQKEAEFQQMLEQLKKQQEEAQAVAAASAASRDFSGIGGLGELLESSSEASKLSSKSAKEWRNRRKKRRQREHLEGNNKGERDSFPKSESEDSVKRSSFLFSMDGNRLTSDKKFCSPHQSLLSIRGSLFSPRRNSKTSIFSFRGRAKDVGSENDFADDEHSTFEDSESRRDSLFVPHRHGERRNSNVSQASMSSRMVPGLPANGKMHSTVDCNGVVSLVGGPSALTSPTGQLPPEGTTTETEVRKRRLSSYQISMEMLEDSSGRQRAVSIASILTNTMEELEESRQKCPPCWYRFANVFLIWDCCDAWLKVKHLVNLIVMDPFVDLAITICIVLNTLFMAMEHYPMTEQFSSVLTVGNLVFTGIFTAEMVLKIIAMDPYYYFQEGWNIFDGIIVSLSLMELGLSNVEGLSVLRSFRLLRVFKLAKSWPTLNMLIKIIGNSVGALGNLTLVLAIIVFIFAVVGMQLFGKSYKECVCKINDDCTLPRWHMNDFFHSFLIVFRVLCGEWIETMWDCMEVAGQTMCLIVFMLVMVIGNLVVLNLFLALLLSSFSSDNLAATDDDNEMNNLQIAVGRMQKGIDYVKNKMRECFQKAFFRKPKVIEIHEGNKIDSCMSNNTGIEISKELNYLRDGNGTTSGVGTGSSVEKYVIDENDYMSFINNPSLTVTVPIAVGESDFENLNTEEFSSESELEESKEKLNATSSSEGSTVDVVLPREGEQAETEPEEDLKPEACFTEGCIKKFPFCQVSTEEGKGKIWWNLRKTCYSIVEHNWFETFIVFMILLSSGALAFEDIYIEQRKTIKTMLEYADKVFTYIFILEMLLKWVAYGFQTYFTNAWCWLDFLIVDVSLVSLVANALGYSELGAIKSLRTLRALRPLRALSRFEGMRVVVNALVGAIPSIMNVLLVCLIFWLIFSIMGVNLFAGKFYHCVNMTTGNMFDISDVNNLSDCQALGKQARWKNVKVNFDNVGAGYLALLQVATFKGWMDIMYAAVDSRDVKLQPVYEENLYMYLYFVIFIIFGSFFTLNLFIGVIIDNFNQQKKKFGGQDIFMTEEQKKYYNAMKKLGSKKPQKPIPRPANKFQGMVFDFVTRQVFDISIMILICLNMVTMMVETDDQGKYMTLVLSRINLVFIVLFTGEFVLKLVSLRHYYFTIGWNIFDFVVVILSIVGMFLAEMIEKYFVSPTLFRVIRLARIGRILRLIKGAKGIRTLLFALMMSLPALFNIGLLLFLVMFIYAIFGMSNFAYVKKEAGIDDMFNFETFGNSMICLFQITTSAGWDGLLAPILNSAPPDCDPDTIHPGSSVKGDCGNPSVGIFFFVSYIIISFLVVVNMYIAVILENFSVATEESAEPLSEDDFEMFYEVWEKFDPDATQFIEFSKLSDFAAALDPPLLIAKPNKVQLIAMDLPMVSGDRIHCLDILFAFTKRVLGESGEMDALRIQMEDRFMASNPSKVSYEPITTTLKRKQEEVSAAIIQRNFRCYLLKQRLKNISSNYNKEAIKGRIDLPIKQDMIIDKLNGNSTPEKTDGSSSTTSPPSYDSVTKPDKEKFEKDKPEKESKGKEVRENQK

The assay has as its target NaV1.3 (Homo sapiens, UniProt Q9NY46). Briefly: VIPR optical membrane potential assay, NaV1.3 inhibition. The class given is cell-based. Also on record: expressed in transfected cells; host or cells: HEK293. The conditions noted are these: activity against NaV 1.3 channel. The procedure: Antagonist properties of test compounds were assessed as follows. Cells expressing the NaV of interest were placed into microtiter plates. After an incubation period, the cells were stained with fluorescent dyes sensitive to the transmembrane potential. The test compounds were added to the microtiter plate. The cells were stimulated with either a chemical or electrical means to evoke a NaV dependent membrane potential change from unblocked channels, which was detected and measured with trans-membrane potential-sensitive dyes. Antagonists were detected as a decreased membrane potential response to the stimulus.
The following is an example of how NaV1.3 inhibition activity is measured using the optical membrane potential method#2. Other subtypes are performed in an analogous mode in a cell line expressing the NaV of interest.
HEK293 cells stably expressing NaV1.3 are plated into 96-well microtiter plates. After an appropriate incubation period, the cells are stained with the voltage sensitive dyes CC2-DMPE/DiSBAC2(3) as follows.
2× CC2-DMPE=20 μM CC2-DMPE: 10 mM CC2-DMPE is vortexed with an equivalent volume of 10% pluronic, followed by vortexing in required amount of HBSS containing 10 mM HEPES. Each cell plate will require 5 mL of 2× CC2-DMPE. 50 μL of 2× CC2-DMPE is to wells containing washed cells, resulting in a 10 μM final staining concentration. The cells are stained for 30 minutes in the dark at RT.
2× DISBAC2(3) with ABSC1=6 μM DISBAC2(3) and 1 mM ABSC1: The required amount of 10 mM DISBAC2(3) is added to a 50 ml conical tube and mixed with 1 μL 10% pluronic for each mL of solution to be made and vortexed together. Then HBSS/HEPES is added to make up 2× solution. Finally, the ABSC1 is added.
The 2× DiSBAC2(3) solution can be used to solvate compound plates. Note that compound plates are made at 2× drug concentration. Wash stained plate again, leaving residual volume of 50 μL. Add 50 μL/well of the 2× DiSBAC2(3) w/ABSC1. Stain for 30 minutes in the dark at RT.
The instrument comprises a microtiter plate handler, an optical system for exciting the coumarin dye while simultaneously recording the coumarin and oxonol emissions, a waveform generator, a current- or voltage-controlled amplifier, and a device for inserting electrodes in well. Under integrated computer control, this instrument passes user-programmed electrical stimulus protocols to cells within the wells of the microfilter plate.
Insert or use electrodes into each well to be assayed.
Use the current-controlled amplifier to deliver stimulation wave pulses for 3 s. Two seconds of pre-stimulus recording are performed to obtain the un-stimulated intensities. Five seconds of post-stimulation recording are performed to examine the relaxation to the resting state.
Data are analyzed and reported as normalized ratios of background-subtracted emission intensities measured in the 460 nm and 580 nm channels. Background intensities are then subtracted from each assay channel. Background intensities are obtained by measuring the emission intensities during the same time periods from identically treated assay wells in which there are no cells. The response as a function of time is then reported as the ratios obtained using the following formula: […]
The data is further reduced by calculating the initial (Ri) and final (Rf) ratios. These are the average ratio values during part or all of the pre-stimulation period, and during sample points during the stimulation period. The response to the stimulus ? =Rf/Ri is then calculated.
Control responses are obtained by performing assays in the presence of a compound with the desired properties (positive control), such as tetracaine, and in the absence of pharmacological agents (negative control). Responses to the negative (N) and positive (P) controls are calculated as above. The compound antagonist activity A is defined as:
[formula] where R is the ratio response of the test compound.
Broadly, the IC50 is the concentration that inhibits the measured activity by half. The low end stands for inhibition by little substance, the high end for a need for much substance. For `Cc1cccc(OCC(=O)N2CCc3cc(S(=O)(=O)Nc4nccs4)ccc32)c1` [Compound 1], the IC50 was less than 2 µM.

On to `O=C(COc1ccccc1Cl)N1CCc2cc(S(=O)(=O)Nc3nccs3)ccc21` [Compound 2], for which the IC50 is less than 2 µM.

As to `O=C(c1ccc(F)cc1)N1Cc2ccc(S(=O)(=O)Nc3nccs3)cc2C1` [Compound 3], the IC50 fell in the range of 2 to 5 µM.

Regarding `Cc1ccc(F)c(C(=O)N2CCc3cc(S(=O)(=O)Nc4nccs4)ccc32)c1` [Compound 4], the IC50 was greater than 5 µM.

The molecule `COc1ccc(CC(=O)N2CCc3cc(S(=O)(=O)Nc4nccs4)ccc32)cc1` [Compound 5] gave an IC50 of less than 2 µM.

Molecule `O=C(c1ccc(F)c(F)c1F)N1CCc2cc(S(=O)(=O)Nc3ncns3)ccc21` [Compound 6] came in with an IC50 of 2 to 5 µM.

Molecule `Cc1ccc(C(=O)N2CCc3cc(S(=O)(=O)Nc4nccs4)ccc32)cc1` [Compound 7] gave an IC50 of 2 to 5 µM.

On to `CC(Oc1ccccc1)C(=O)N1CCc2ccc(S(=O)(=O)Nc3nccs3)cc2C1` (centres unmarked) [Compound 8], for which the IC50 was greater than 5 µM.

Molecule `CC(C)(Oc1ccc(Cl)cc1)C(=O)N1CCc2cc(S(=O)(=O)Nc3nccs3)ccc21` [Compound 9] gave an IC50 of less than 2 µM.

The molecule `COc1ccccc1CC(=O)N1CCc2cc(S(=O)(=O)Nc3nccs3)ccc21` [Compound 10] displayed an IC50 of 2 to 5 µM.

For the molecule `O=C(COc1cccc(Cl)c1)N1Cc2ccc(S(=O)(=O)Nc3nccs3)cc2C1` [Compound 11], the IC50 was less than 2 µM.

Take `O=C(COc1ccccc1)N1CCc2ccc(S(=O)(=O)Nc3nccs3)cc2C1` [Compound 12]: the IC50 is greater than 5 µM.

As for `O=C(COc1ccc(F)c(Cl)c1)N1CCc2cc(S(=O)(=O)Nc3ncns3)ccc21` [Compound 13], the IC50 was less than 2 µM.

The molecule `O=C(COc1ccc(F)cc1)N1CCc2cc(S(=O)(=O)Nc3nccs3)ccc21` [Compound 14] showed an IC50 of less than 2 µM.

With `O=C(CN1CCc2ccccc2C1)N1CCCc2cc(S(=O)(=O)Nc3nccs3)ccc21` [Compound 15], the IC50 lay within 2 to 5 µM.

`Cc1ccc(OCC(=O)N2CCc3ccc(S(=O)(=O)Nc4nccs4)cc3C2)c(C)c1` [Compound 16]: the IC50 is less than 2 µM.

`CC(C(=O)N1Cc2ccc(S(=O)(=O)Nc3nccs3)cc2C1)n1ccc2ccccc21` (centres unmarked) [Compound 17] yielded an IC50 of less than 2 µM.

`COc1cccc(CCC(=O)n2ccc3cc(S(=O)(=O)Nc4nccs4)ccc32)c1` [Compound 18] registered an IC50 of less than 2 µM.

For the molecule `O=C(COc1ccc(Cl)c(Cl)c1)n1ccc2cc(S(=O)(=O)Nc3nccs3)ccc21` [Compound 19], the IC50 is greater than 5 µM.

In the case of `C[C@H](C(=O)N1CCc2cc(S(=O)(=O)Nc3nccs3)ccc21)n1ccc2ccccc21` [Compound 20], the IC50 was less than 2 µM.

Molecule `CC(Oc1cc(Cl)ccc1Cl)C(=O)N1CCc2cc(S(=O)(=O)Nc3nccs3)ccc21` (centres unmarked) [Compound 21] came in with an IC50 of less than 2 µM.

As to `O=S(=O)(Nc1nccs1)c1ccc2c(c1)CCN2CCNc1cnc2ccccc2c1` [Compound 22], the IC50 was greater than 5 µM.

`O=C(COc1ccc(Cl)cc1)N1CCc2ccc(S(=O)(=O)Nc3nccs3)cc2C1` [Compound 23] returned a half-maximal inhibitory concentration (IC50) greater than 5 µM.

For the molecule `O=C(CNCc1ccccc1)N1CCc2cc(S(=O)(=O)Nc3nccs3)ccc21` [Compound 24], the IC50 is greater than 5 µM.

On to `Cc1ccc(OCC(=O)N2CCc3ccc(S(=O)(=O)Nc4nccs4)cc3C2)cc1` [Compound 25], for which the IC50 was greater than 5 µM.

In the case of `Cc1ccc(CC(=O)N2CCc3cc(S(=O)(=O)Nc4nccs4)ccc32)cc1` [Compound 26], the IC50 is less than 2 µM.

`O=C(COc1ccc(F)c(Cl)c1)N1Cc2ccc(S(=O)(=O)Nc3nccs3)cc2C1` [Compound 27]: the IC50 is less than 2 µM.

Consider `CN(CC(=O)N1CCc2cc(S(=O)(=O)Nc3nccs3)ccc21)c1ccncc1` [Compound 29], for which the IC50 is greater than 5 µM.

Turning to `O=C(COc1ccc(F)c(Cl)c1)N1CCc2cc(S(=O)(=O)Nc3nccs3)ccc21` [Compound 30], the IC50 was less than 2 µM.

Take `COc1cccc(CC(=O)N2CCc3cc(S(=O)(=O)Nc4ncns4)ccc32)c1` [Compound 31]: the IC50 is less than 2 µM.

Consider `O=C(CCCOc1ccc(Cl)c(Cl)c1)N1Cc2ccc(S(=O)(=O)Nc3ncns3)cc2C1` [Compound 32], for which the IC50 is less than 2 µM.

Consider `O=C(CCCOc1ccc(Cl)cc1Cl)N1CCc2cc(S(=O)(=O)Nc3ncns3)ccc21` [Compound 33], for which the half-maximal inhibitory concentration (IC50) is less than 2 µM.

Take `O=C(c1ccccc1F)N1CCc2cc(S(=O)(=O)Nc3ncns3)ccc21` [Compound 34]: the IC50 is greater than 5 µM.

Molecule `Cc1ccccc1CNCC(=O)N1CCc2cc(S(=O)(=O)Nc3nccs3)ccc21` [Compound 35] had an IC50 of 2 to 5 µM.

Consider `O=C(COc1ccc(F)c(Cl)c1)N1CCCc2cc(S(=O)(=O)Nc3ncns3)ccc21` [Compound 36], for which the IC50 was 2 to 5 µM.

In turn, `O=C(CN1CCCc2cc(Cl)ccc21)N1Cc2ccc(S(=O)(=O)Nc3ccncn3)cc2C1` [Compound 37] gave an IC50 of 2 to 5 µM.

For `CC(Oc1ccccc1)C(=O)N1CCCc2cc(S(=O)(=O)Nc3nccs3)ccc21` (centres unmarked) [Compound 39], the IC50 was greater than 5 µM.

Turning to `O=C(c1ccccc1Cl)N1CCc2cc(S(=O)(=O)Nc3nccs3)ccc21` [Compound 40], the IC50 is greater than 5 µM.

The molecule `Cc1ccc(CNCC(=O)N2CCc3cc(S(=O)(=O)Nc4nccs4)ccc32)cc1` [Compound 41] had an IC50 of 2 to 5 µM.

For the molecule `O=C(COc1ccc(F)cc1)N1CCc2cc(S(=O)(=O)Nc3ncns3)ccc21` [Compound 42], the IC50 is less than 2 µM.

Take `Cc1cccc(CC(=O)N2CCc3cc(S(=O)(=O)Nc4nccs4)ccc32)c1` [Compound 43]: the IC50 was less than 2 µM.

With `O=C(CN1CCc2ccc(Cl)cc2C1)N1CCc2cc(S(=O)(=O)Nc3nccs3)ccc21` [Compound 44], the IC50 was less than 2 µM.

Molecule `O=C(COc1ccnc2c(C(F)(F)F)cccc12)N1CCc2ccc(S(=O)(=O)Nc3nncs3)cc2C1` [Compound 45] gave an IC50 greater than 5 µM.

Molecule `Cc1ccc(C(=O)N2CCc3cc(S(=O)(=O)Nc4nccs4)ccc32)cc1` [Compound 47] displayed an IC50 of less than 2 µM.

`O=C(CNc1ccc(F)c(Cl)c1)N1CCc2cc(S(=O)(=O)Nc3nccs3)ccc21` [Compound 48]: the IC50 fell in the range of 2 to 5 µM.

In the case of `O=C(COc1ccc(Cl)cc1)N1CCc2cc(S(=O)(=O)Nc3nccs3)ccc21` [Compound 49], the IC50 is less than 2 µM.

The molecule `O=C(c1cccc(Cl)c1)N1CCc2cc(S(=O)(=O)Nc3nccs3)ccc21` [Compound 50] returned an IC50 of less than 2 µM.

For `O=C(Cc1ccc(OC(F)(F)F)cc1)N1CCc2cc(S(=O)(=O)Nc3nccs3)ccc21` [Compound 51], the IC50 was less than 2 µM.

As to `O=C(COc1ccc(OC(F)(F)F)cc1)N1CCc2ccc(S(=O)(=O)Nc3nccs3)cc2C1` [Compound 52], the IC50 was greater than 5 µM.

The molecule `O=C(COc1cccc(Cl)c1)N1CCCc2cc(S(=O)(=O)Nc3ncns3)ccc21` [Compound 53] came in with an IC50 of 2 to 5 µM.

With `O=C(N1CCc2cc(S(=O)(=O)Nc3nccs3)ccc21)C1(c2ccccc2)CC1` [Compound 54], the IC50 is less than 2 µM.

Consider `COc1cc(C(=O)n2ccc3cc(S(=O)(=O)Nc4nccs4)ccc32)ccc1C` [Compound 55], for which the IC50 was 2 to 5 µM.

As to `O=C(Cn1ccc2cccc(Cl)c21)N1Cc2ccc(S(=O)(=O)Nc3ccncn3)cc2C1` [Compound 56], the half-inhibitory concentration (IC50) is less than 2 µM.

In turn, `CC(C(=O)N1Cc2ccc(S(=O)(=O)Nc3ncns3)cc2C1)N1CCCc2cc(Cl)ccc21` (centres unmarked) [Compound 57] yielded an IC50 of less than 2 µM.

Turning to `C[C@H](C(=O)N1Cc2ccc(S(=O)(=O)Nc3ccc(Cl)nn3)cc2C1)n1ccc2c(F)cccc21` [Compound 58], the IC50 is greater than 5 µM.

Consider `O=C(ON1Cc2ccc(S(=O)(=O)Nc3nccs3)cc2C1)c1cccc(C(F)(F)F)c1` [Compound 59], for which the IC50 was less than 2 µM.
